# From patent US20100233093A1, “Magnetic resonance imaging contrast agent with paramagnetic-inositol phosphates complexes” (GACHON UNIVERSITY OF MEDICINE & SCIENCE INDUSTRY-ACADEMIC …, priority 2009, published 2010)
# Where “and” joins values, the source holds several entries; their conditions need not be identical. Equal entries are not always repeated.
# Experiments:
# [1] = Stability constant (K) from thermodynamic parameters of ITC analysis; assay type: physicochemical; settings: calculated from ΔG of ITC analysis
# Description: A stability constant (formation constant, binding constant) is an equilibrium constant for the formation of a complex in solution. It is a measure of the strength of the interaction between the reagents that come together to form the complex. The thermodynamics of metal ion complex formation provides much significant information. The chelate effect, below, is best explained in terms of thermodynamics. An equilibrium constant is related to the standard Gibbs free energy change for the reaction.
# [2] = ITC analysis of Gd^3+ binding to EDTA; settings: higher affinity than EDTA
# [3] = ITC analysis of Ca^2+ binding to phytate; settings: Ca^2+ stronger than Mg^2+
Compound,Stability Constant (K) [1],affinity for Gd^3+ relative to EDTA [2],binding affinity for Ca^2+ relative to Mg^2+ [3]
O=C([O-])CN(CCN(CC(=O)[O-])CC(=O)[O-])CC(=O)[O-].[Gd+3] [Gd-EDTA],4.4e+29 M⁻¹,,
O=C([O-])CN1CCN(CC(=O)[O-])CCN(CC(=O)O)CCN(CC(=O)[O-])CC1.[Gd+3] [Gd-DOTA],1.3e+29 M⁻¹,,
O=P(O)(O)OC1C(OP(=O)(O)O)C(OP(=O)(O)O)C(OP(=O)(O)O)C(OP(=O)(O)O)C1OP(=O)(O)O (centres unmarked) [phytate],,10 fold and 10- to 100 fold,100 fold
O=C([O-])CN(CCN(CC(=O)[O-])CC(=O)O)CCN(CC(=O)[O-])CC(=O)O.[Gd+3] [Gd-DTPA],1.2e+28 M⁻¹,,
